# According to paper PMC2063170, “A phase I clinical and pharmacokinetic study of the new topoisomerase inhibitor GI147211 given as a 72-h continuous infusion” (British Journal of Cancer, 1998):
# “And” between values parts separate entries of the source, which are not always exact repeats. Identical values can stand only once.
# What was measured:
# [1] = tested on: melanoma cell line Lox; set-up: method as in Emerson et al. 1995; settings: ref Emerson et al. 1995; cited from earlier work
# [2] = tested on: colon (HT29 and SW480), breast (MX 1), ovarian (SKOV3), prostate (PC3) and lung (H460) carcinoma xenografts; set-up: method as in Emerson et al. 1986. 1993. 1994. 1995; settings: nude mice; ref Emerson et al. 1986. 1993. 1994. 1995; cited from earlier work
# [3] = tested on: in vitro models; set-up: method as in Slichenmyer et al. 1993: Emerson et al. 1995; settings: ref Slichenmyer et al. 1993: Emerson et al. 1995; cited from earlier work
# [4] = tested on: neutrophils and platelets; test: Pharmacodynamics: sigmoid Emax (Hill) fit of % decrease in neutrophils or platelets vs lactone Css; type: in vivo, patients; settings: sigmoid Emax model
# Description: Brrtish Joumal of Cancer(1998) 78(10). 1329-1336 @ 1998 Cancer Research Campaign A phase I clinical and pharmacokinetic study of the new topoisomerase inhibitor G1147211 given as a 72-h continuous infusion L Paz-Aresl*, R Kunkal 2, D DeMarial-3, J Cassidy' 4, M Alden3, P Beranek2, S Kaye', D Littlefield2, D Reilly3, S Depee2, P Wissel2, C Twelves' and P O'Dwyer3 CRC Department of Medical Oncology. University of Glasgow. Westem Infirmary Hospital. Glasgow Gll 6NT. UK; 2Glaxo Wellcome Research. Five Moore Drive. Research Triangle Park. NC 27709. USA; 'Fox Chase Cancer Center. 7701 Burholme Avenue. Philadelphia, PA 19111. USA: 4Thomas Jefferson University. Kimmel Cancer Institute. Bluemle Life Sciences Building. 233 S. 10th Street. Suite 502. Philadelphia. PA 19107. […] This study was designed to determine the maximum tolerated dose of Gl147211 as a 72-h infusion and to describe its pharmacokinetics and pharmacodynamics on this schedule. In a single-arm, rising-dose study in patients with advanced cancer, eight cohorts of three or more patients received 72-h infusions of G1147211 at doses ranging from 0.25 to 2.5 mg m-2 day-'. […] Whole-blood G1147211 lactone, total blood and total concentrations were measured during and over the 12 h following the infusion. […] Extensive phase 11 evaluation of this compound and further phase I trials evaluating more prolonged infusions are ongoing. […]
# [5] = Phase I toxicity (Common Toxicity Criteria), 72-h continuous infusion; settings: for MTD: 72-h infusion
# Description: Brrtish Joumal of Cancer(1998) 78(10). 1329-1336 @ 1998 Cancer Research Campaign A phase I clinical and pharmacokinetic study of the new topoisomerase inhibitor G1147211 given as a 72-h continuous infusion L Paz-Aresl*, R Kunkal 2, D DeMarial-3, J Cassidy' 4, M Alden3, P Beranek2, S Kaye', D Littlefield2, D Reilly3, S Depee2, P Wissel2, C Twelves' and P O'Dwyer3 CRC Department of Medical Oncology. University of Glasgow. Westem Infirmary Hospital. Glasgow Gll 6NT. UK; 2Glaxo Wellcome Research. Five Moore Drive. Research Triangle Park. NC 27709. USA; 'Fox Chase Cancer Center. 7701 Burholme Avenue. Philadelphia, PA 19111. USA: 4Thomas Jefferson University. Kimmel Cancer Institute. Bluemle Life Sciences Building. 233 S. 10th Street. Suite 502. Philadelphia. PA 19107. […] This study was designed to determine the maximum tolerated dose of Gl147211 as a 72-h infusion and to describe its pharmacokinetics and pharmacodynamics on this schedule. In a single-arm, rising-dose study in patients with advanced cancer, eight cohorts of three or more patients received 72-h infusions of G1147211 at doses ranging from 0.25 to 2.5 mg m-2 day-'. […] Whole-blood G1147211 lactone, total blood and total concentrations were measured during and over the 12 h following the infusion. […] Extensive phase 11 evaluation of this compound and further phase I trials evaluating more prolonged infusions are ongoing. Keywords: G1147211: GG211: camptothecin analogues: topoisomerase I inhibitor; phase I trial; pharmacokinetics: pharmacodynamics: continuous infusion GI 147211 (7-4 methyl piperazinomethilene)- 10.1 1 -ethylenedioxy - 20-(S camptothecin: Figure 1) is a totally synthetic analogue of camptothecin. a natural product isolated from Camptotheca acuminata (WAall et al. 1966: Emerson et al. 1995). […] The nuclear enzyvme DNA topoisomerase I. x hich relaxes DNA supercoils arising during, replication and gene tran- scription. has been identified as the specific targret of camptothecin (Hsianer and Liu. 1988: Wall and Wani. 1995).
# [6] = heavy pretreatment, 1.2 mg m-2 day-1, n=3
# [7] = heavy pretreatment, 1.5 mg m-2 day-1, n=4
# [8] = heavy pretreatment, 2.0 mg m-2 day-1, n=1
# [9] = minimal pretreatment, 1.5 mg m-2 day-1, n=5
# [10] = minimal pretreatment, 1.75 mg m-2 day-1, n=3
# [11] = minimal pretreatment, 2.0 mg m-2 day-1, n=10
# [12] = minimal pretreatment, 2.5 mg m-2 day-1, n=2
smiles,measurement,setting,value
"CC[C@@]1(O)C(=O)OCc2c1cc1n(c2=O)Cc2c-1nc1cc3c(cc1c2CN1CCN(C)CC1)OCCO3 [GI147211, 7-4 methyl piperazinomethilene)-10.1 1-ethylenedioxy - 20-(S camptothecin]",50% growth inhibition concentration,[1],0.592 ng/mL
same,Anti-tumour activity in xenografts,[2],confirmed the anti-tumour actixitv
same,Activity relative to topotecan,[3],2-5 times more active
same,"EC50, half-maximal concentration (lactone Css) for % decrease in neutrophils (ANC)",[4],0.75 ng/mL and 0.750 ng/mL
same,"EC50, half-maximal concentration (lactone Css) for % decrease in platelets",[4],1.141 ng/mL
same,"Anaemia, patients with worst CTC grade 1","[5]; 0.25 mg m-2 day-1, n=6",2 patients
same,"Thrombocytopenia, patients with worst CTC grade 1","[5]; 0.25 mg m-2 day-1, n=6",1 patients
same,"Anaemia, patients with worst CTC grade 1","[5]; 0.50 mg m-2 day-1, n=4",1 patients
same,"Leucopenia, patients with worst CTC grade 1","[5]; 0.50 mg m-2 day-1, n=4",1 patients
same,"Anaemia, patients with worst CTC grade 3","[5]; 1.0 mg m-2 day-1, n=5",1 patients
same,"Leucopenia, patients with worst CTC grade 2","[5]; 1.0 mg m-2 day-1, n=5",1 patients
same,"Leucopenia, patients with worst CTC grade 3","[5]; 1.0 mg m-2 day-1, n=5",1 patients
same,"Neutropenia, patients with worst CTC grade 1","[5]; 1.0 mg m-2 day-1, n=5",1 patients
same,"Thrombocytopenia, patients with worst CTC grade 1","[5]; 1.0 mg m-2 day-1, n=5",1 patients
same,"Thrombocytopenia, patients with worst CTC grade 4","[5]; 1.0 mg m-2 day-1, n=5",1 patients
same,Patients with central venous catheter associated infections requiring i.v. antibiotics,[5]; 39 patients treated through central venous catheters,Five
same,Patients complaining of headache while receiving the infusion,[5]; all doses,Twenty
same,Patients with alopecia,"[5]; all doses, 44 patients",14 patients
same,Patients with grade I or II nausea,"[5]; all doses, 44 patients",Twenty-six
same,Patients with grade I or II vomiting,"[5]; all doses, 44 patients",16 patients
same,Patients with grade III vomiting,"[5]; all doses, 44 patients",Three
same,Patients with mild diarrhoea,"[5]; all doses, 44 patients",seven
same,Patients with grade II or III anaemia,[5]; doses > 1.2 mg m-2 day-1,15 of 29
same,Phlebitis at the site of venepuncture,"[5]; five patients infused through peripheral veins, doses < 1.0 mg m-2 day-1",All of these patients developed phlebitis
same,Recommended phase II dose,[5]; heavily pretreated patients,1.2 mg m-2 day-1
same,MTD,[5]; heavily pretreated patients,1.2 mg m-2 day-1
same,Time of platelet nadir after the beginning of the infusion,"[5]; heavily pretreated, 1.2 mg m-2 day-1, range 15-22",18 days
same,"Platelet nadir, median count","[5]; heavily pretreated, 1.2 mg m-2 day-1, range 31-93",7.5e+10 L⁻¹
same,"Anaemia, patients with worst CTC grade 1",[5]; [6],1 patients
same,"Anaemia, patients with worst CTC grade 2",[5]; [6],2 patients
same,"Leucopenia, patients with worst CTC grade 1",[5]; [6],1 patients
same,"Leucopenia, patients with worst CTC grade 2",[5]; [6],1 patients
same,"Neutropenia, patients with worst CTC grade 1",[5]; [6],1 patients
same,"Thrombocytopenia, patients with worst CTC grade 1",[5]; [6],2 patients
same,"Thrombocytopenia, patients with worst CTC grade 3",[5]; [6],1 patients
same,"Anaemia, patients with worst CTC grade 1",[5]; [7],1 patients
same,"Anaemia, patients with worst CTC grade 2",[5]; [7],2 patients
same,"Leucopenia, patients with worst CTC grade 3",[5]; [7],2 patients
same,"Leucopenia, patients with worst CTC grade 4",[5]; [7],1 patients
same,"Neutropenia, patients with worst CTC grade 4",[5]; [7],3 patients
same,"Thrombocytopenia, patients with worst CTC grade 4",[5]; [7],3 patients
same,"Anaemia, patients with worst CTC grade 3",[5]; [8],1 patients
same,"Leucopenia, patients with worst CTC grade 4",[5]; [8],1 patients
same,"Neutropenia, patients with worst CTC grade 4",[5]; [8],1 patients
same,"Thrombocytopenia, patients with worst CTC grade 4",[5]; [8],1 patients
same,Induction of diarrhoea,[5]; in contrast to irinotecan,does not induce diarrhoea
same,Patients with grade IV neutropenia who developed fever,"[5]; in vivo, iv",Five of the ten
same,"Anaemia, patients with worst CTC grade 2",[5]; [9],2 patients
same,"Anaemia, patients with worst CTC grade 3",[5]; [9],2 patients
same,"Leucopenia, patients with worst CTC grade 2",[5]; [9],2 patients
same,"Leucopenia, patients with worst CTC grade 4",[5]; [9],1 patients
same,"Neutropenia, patients with worst CTC grade 3",[5]; [9],2 patients
same,"Neutropenia, patients with worst CTC grade 4",[5]; [9],1 patients
same,"Thrombocytopenia, patients with worst CTC grade 1",[5]; [9],1 patients
same,"Thrombocytopenia, patients with worst CTC grade 2",[5]; [9],1 patients
same,"Thrombocytopenia, patients with worst CTC grade 3",[5]; [9],1 patients
same,"Thrombocytopenia, patients with worst CTC grade 4",[5]; [9],1 patients
same,"Anaemia, patients with worst CTC grade 1",[5]; [10],1 patients
same,"Anaemia, patients with worst CTC grade 3",[5]; [10],1 patients
same,"Leucopenia, patients with worst CTC grade 3",[5]; [10],1 patients
same,"Neutropenia, patients with worst CTC grade 3",[5]; [10],1 patients
same,"Anaemia, patients with worst CTC grade 1",[5]; [11],4 patients
same,"Anaemia, patients with worst CTC grade 2",[5]; [11],4 patients
same,"Anaemia, patients with worst CTC grade 3",[5]; [11],1 patients
same,"Leucopenia, patients with worst CTC grade 1",[5]; [11],4 patients
same,"Leucopenia, patients with worst CTC grade 2",[5]; [11],1 patients
same,"Leucopenia, patients with worst CTC grade 3",[5]; [11],1 patients
same,"Leucopenia, patients with worst CTC grade 4",[5]; [11],2 patients
same,"Neutropenia, patients with worst CTC grade 1",[5]; [11],2 patients
same,"Neutropenia, patients with worst CTC grade 2",[5]; [11],2 patients
same,"Neutropenia, patients with worst CTC grade 4",[5]; [11],3 patients
same,"Thrombocytopenia, patients with worst CTC grade 1",[5]; [11],2 patients
same,"Thrombocytopenia, patients with worst CTC grade 2",[5]; [11],1 patients
same,"Thrombocytopenia, patients with worst CTC grade 3",[5]; [11],4 patients
same,"Anaemia, patients with worst CTC grade 3",[5]; [12],1 patients
same,"Leucopenia, patients with worst CTC grade 3",[5]; [12],1 patients
same,"Leucopenia, patients with worst CTC grade 4",[5]; [12],1 patients
same,"Neutropenia, patients with worst CTC grade 4",[5]; [12],2 patients
same,"Thrombocytopenia, patients with worst CTC grade 3",[5]; [12],1 patients
same,"Thrombocytopenia, patients with worst CTC grade 4",[5]; [12],1 patients
same,Dose at which neutropenia was dose limiting,[5]; minimally pretreated patients,2.0 mg m-2 day-1
same,MTD,[5]; minimally pretreated patients,2.0 mg m-2 day-1
same,"Nadir neutrophil count, median value","[5]; minimally pretreated, 2.0 mg m-2 day-1, range 0.02-3.92",1.59e+09 L⁻¹
same,"Platelet nadir, median value","[5]; minimally pretreated, 2.0 mg m-2 day-1, range 7-219",7.2e+10 L⁻¹
same,Day of platelet nadir,"[5]; minimally pretreated, 2.0 mg m-2 day-1, range 8-20",15 days
same,"Time of lowest nadir neutrophil count, median","[5]; minimally pretreated, 2.0 mg m-2 day-1, range 10-22",16.5 days
same,Dose at which neutropenia and thrombocytopenia were limiting,[5]; more heavily pretreated patients,1.5 mg m-2 day-1
same,Time to recovery of phlebitis,[5]; peripheral vein infusions,7 to 24 days
same,Median duration of grade IV neutropenia episodes,[5]; range 1-14,5 days
same,Median duration of grade III or IV thrombocytopenia,[5]; range 1-10 days,4 days
same,Recommended phase II dose,[5]; untreated/minimally pretreated patients,1.75 mg m-2 day-1
